In paper PMC3474771, “Evaluation of 14 Organic Solvents and Carriers for Screening Applications in Zebrafish Embryos and Larvae” (PLoS ONE, 2012):
Like-named read-outs stand apart in the source and are kept apart here.

Experiments:
[1] = system: zebrafish embryos and larvae; conditions: for Maximum-tolerated concentration (MTC): highest concentration with no phenotypic abnormalities, followed to 9 dpf; for MTC / tolerated concentration: over all or most developmental stages analyzed, 24-hour exposure; for Phenotypic effects above MTC after 24 hours (average penetrance at least 50%): at the concentration in parentheses
Method: Zebrafish embryos of the AB wild-type strain (originally obtained from the Zebrafish International Resource Center, Eugene, Oregon, USA) were raised at 28°C. Zebrafish husbandry, embryo collection, and embryo and larva maintenance were performed as described, [21]. Toxicity assays were standardly performed in 24-well microtiter plates (wrapped with Parafilm to limit solvent evaporation) using 10 embryos per well in 1 ml of 0.3× Danieau's medium (17 mM NaCl, 2 mM KCl, 0.12 mM MgSO4, 1.8 mM Ca(NO3)2 and 1.5 mM HEPES, pH 7.6). Each experiment was repeated 3 times for a total of 30 embryos or larvae analyzed per solvent per developmental staged tested. Data were only recorded for experiments in which the percentage of normal embryos or larvae in the control group was at least 90%. […] In determining the maximum tolerated concentration (MTC) for each solvent and carrier, all post-exposure embryos and larvae were allowed to develop in larva medium to 9 dpf, so as to detect any deleterious effects appearing after this 24-hour window. Solvents and carriers were obtained from the following suppliers: acetone (Chemlab, Zedelgem, Belgium), acetonitrile (Acros Organics, Geel, Belgium), albumin (BSA, Sigma-Aldrich, Bornem, Belgium), butanone (Riedel-de Haën, Seelze, Germany), cyclodextrin (2- hydroxypropyl-beta-cyclodextrin, Sigma-Aldrich), dimethyl formamide (Acros), DMSO (Agros), ethanol (Fisher Scientific, Doornik, Belgium), glycerol (Acros), isopropanol (Chemlab), methanol (Chemlab), polyethylene glycol-400 (Fluka, Bornem, Belgium), propylene glycol (Certa, Eigenbrakel, Belgium), solketal (Merck, Overijse, Belgium). Statistical analyses were done using chi-square in Microsoft Excel.
Twelve solvents and 2 carriers – chosen based solely on their potential utility for the solubilization and delivery of a structurally diverse range of small molecules – were analyzed for their effects on zebrafish embryos and larvae. The solvents included acetone, acetonitrile, butanone, dimethyl formamide, DMSO, ethanol, glycerol, isopropanol, methanol, polyethylene glycol (PEG-400), propylene glycol, and solketal, and the carriers included albumin (BSA) and cyclodextrin (2-hydroxypropyl-beta-cyclodextrin, or HPBCD). […] For this initial study, the effects of a 24-hour exposure to each solvent and carrier was analyzed using embryos and larvae at the following developmental stages: 2–4 cell, 4 hours-post fertilization (hpf), and 1, 2, 3, 4, and 7 days post-fertilization (dpf).

early embryos = system: early embryos; parameters: method as in PMID 18031801; conditions: solutions containing between 5 and 10% of this solvent; cited from earlier work
rat embryos = conditions: cited from earlier work
zebrafish = system: zebrafish; parameters: method as in PMID 18646521; conditions: 0.01% acetone; cited from earlier work
zebrafish embryos = system: zebrafish embryos; parameters: method as in PMID 16125774; conditions: 2% DMSO; cited from earlier work
[2] = exposure for 24 hours beginning at 1 dpf
[3] = exposure for 24 hours beginning at 2 dpf
[4] = exposure for 24 hours beginning at 2–4 cell stage
[5] = exposure for 24 hours beginning at 3 dpf
[6] = exposure for 24 hours beginning at 4 dpf
[7] = exposure for 24 hours beginning at 4 hpf
[8] = exposure for 24 hours beginning at 5 dpf
[9] = exposure for 24 hours beginning at 7 dpf

Row | Compound | Maximum-tolerated concentration (MTC) [1, 2] [%] | Maximum-tolerated concentration (MTC) [1, 3] [%] | Maximum-tolerated concentration (MTC) [1, 4] [%] | Maximum-tolerated concentration (MTC) [1, 5] [%] | Maximum-tolerated concentration (MTC) [1, 6] [%] | Maximum-tolerated concentration (MTC) [1, 7] [%] | Maximum-tolerated concentration (MTC) [1, 8] [%] | Maximum-tolerated concentration (MTC) [1, 9] [%] | MTC / tolerated concentration [1] | Lowest concentration at which an average penetrance of at least 50% was observed for the phenotypic effects ([1]; 24 hours exposure from 1 dpf) [%] | Lowest concentration at which an average penetrance of at least 50% was observed for the phenotypic effects ([1]; 24 hours exposure from 2 dpf) [%] | Lowest concentration at which an average penetrance of at least 50% was observed for the phenotypic effects ([1]; 24 hours exposure from 3 dpf) [%] | Lowest concentration at which an average penetrance of at least 50% was observed for the phenotypic effects ([1]; 24 hours exposure from 4 dpf) [%] | Lowest concentration at which an average penetrance of at least 50% was observed for the phenotypic effects ([1]; 24 hours exposure from 4 hpf) [%] | Lowest concentration at which an average penetrance of at least 50% was observed for the phenotypic effects ([1]; 24 hours exposure from 5 dpf) [%] | Lowest concentration at which an average penetrance of at least 50% was observed for the phenotypic effects ([1]; 24 hours exposure from 7 dpf) [%] | Phenotypic effects above MTC after 24 hours (average penetrance at least 50%) ([1]; exposure from 1 dpf) | Phenotypic effects above MTC after 24 hours (average penetrance at least 50%) ([1]; exposure from 3 dpf) | Phenotypic effects above MTC after 24 hours (average penetrance at least 50%) ([1]; exposure from 5 dpf) | Phenotypic effects above MTC after 24 hours (average penetrance at least 50%) ([1]; exposure from 7 dpf) | also measured
1 | CC(O)CO (stereo not shown) [Propylene glycol] | >2.5 | >2.5 | >2.5 | 2 | 1.5 | >2.5 | >2.5 | 1.5 | at least 2.5% |  |  |  |  |  |  |  |  |  |  |  | Toxicity of brief exposures to cryoprotectant solutions (early embryos): toxic
2 | CC#N [Acetonitrile, acetonitrile] | 1 |  | <0.5 | 1 |  |  |  |  |  | 2.5 | 1.5 | 1.5 | 1.5 | 1.5 | 1 | 0.5 | DD PE | PE SB | IC PE | IC PE | Effect on cleavage-stage embryos ([1]; 0.5% (lowest concentration examined), after 24 hours of exposure): completely lethal; Phenotypic effects above MTC after 24 hours (average penetrance at least 50%) ([1]; exposure from 4 dpf): IC PE; Phenotypic effects above MTC after 24 hours (average penetrance at least 50%) ([1]; exposure from 4 hpf): AP IC IP NO SO; Minimum embryotoxic concentration (rat embryos): 40 mM
3 | CC(C)=O [Acetone, acetone] | 1.5 | 1.5 | 2 | ≥2.5 | 1.5 | 2 | <0.5 | <0.5 |  |  |  |  |  |  |  | 0.5 |  |  |  |  | Maximum-tolerated concentration (MTC) ([1]; exposure for 24 hours beginning at 3 dpf, listed as acetone): ≥ 2.5%; Toxicity of negative controls with solvent (zebrafish): no signs of toxicity
4 | C[S+](C)[O-] [Dimethyl sulfoxide (DMSO), Dimethyl sulfoxide] | 2 | 2 | >2.5 | 1.5 | 2 | >2.5 | 2 | 1.5 |  |  |  | 2.5 |  |  | 2.5 | 2 |  | NB SB | GG IC IM LP | NB LP | MTC / tolerated concentration as summarised in the text for a subset of stages ([1]; BSA: intermediate stages, DMSO: embryos, glycerol: younger larvae and embryos): at least 2.5%; Levels at which abnormalities or lethality begin in at least a subset of treated animals ([1]; larvae): 2–2.5%; Adverse effects at maximum concentration tested (zebrafish embryos): no adverse effects
5 | CN(C)C=O [Dimethyl formamide (DMF), Dimethyl formamide] | <0.5 | 0.5 | 0.5 | 0.5 | 0.5 | <0.5 | 0.5 | <0.5 | ≤ 0.5% | 0.5 | 1 | 1 | 1 | 1 | 1.5 | 0.5 | AP BH IC IM NB PE | HJ IC PE | IM LP PE SB | HO LP | Lowest concentration at which an average penetrance of at least 50% was observed for the phenotypic effects ([1]; 24 hours exposure from 2–4 cell stage): 1%; Phenotypic effects above MTC after 24 hours (average penetrance at least 50%) ([1]; exposure from 2 dpf): AP HJ PE; Phenotypic effects above MTC after 24 hours (average penetrance at least 50%) ([1]; exposure from 4 dpf): AP LP; Phenotypic effects above MTC after 24 hours (average penetrance at least 50%) ([1]; exposure from 4 hpf): AP BC BS CF PE
6 | CCC(C)=O [Butanone (MEK), 2-butanone] | 1 | 1.5 | 0.5 | 1.5 | 1.5 | 1 | <0.5 | 0.5 |  | 2 | 2.5 | 2 |  |  |  |  | IC MC PE | HJ SB |  |  | Maximum-tolerated concentration (MTC) ([1]; exposure for 24 hours beginning at 2–4 cell stage, listed as butanone): ≤ 0.5%; Maximum-tolerated concentration (MTC) ([1]; exposure for 24 hours beginning at 5 dpf, listed as butanone): ≤ 0.5%; Maximum-tolerated concentration (MTC) ([1]; exposure for 24 hours beginning at 7 dpf, listed as butanone): ≤ 0.5%; Phenotypic effects above MTC after 24 hours (average penetrance at least 50%) ([1]; exposure from 2 dpf): DD HJ
